Experimental data taken from US9359409B2, “Antimicrobial peptides, compositions comprising the same and uses thereof” (priority 2012, dated 2016).
Like-named read-outs stand apart in the source and are kept apart here. Ends that are not written are not given here.

Columns and labels:
[1] = test system: Escherichia coli
Protocol: (§1) The 5 designed and synthesized peptides of the invention, plus omiganan (peptide of the state of the art) were evaluated for their antimicrobial capacity in microdilution assays for determining the minimum inhibitory concentration (MIC). A first panel of 8 representative strains was analyzed in these assays, encompassing Gram positive and Gram negative bacteria. […] The lowest MIC values indicate a higher antimicrobial potency.
(§2) Subsequently, an analysis of a panel of clinical isolates including strains with different resistance mechanisms against conventional antibiotics was carried out, all of which are of clinical relevance. […] In Table 3 the results for a panel of Gram negative bacteria are shown, and in Table 4 for a panel of […] bacteria. In these tables the detected gene/s responsible for the resistance against antibiotics for each strain, are included.
(§3) Antimicrobial activity was analyzed by means of the determination of the MIC (minimum inhibitory concentration) by the microdilution technique. The technique was carried out in the standard fashion according to (CLSI M07-A9 Vol. 32 No 2. January 2012). The peptide concentration range used was from 0.5 μg/mL to 512 μg/mL in two-fold serial dilutions. The used medium was MH Difco broth supplemented with cations, at a final concentration of Ca^++20-25 mg/L and Mg^++10-12.5 mg/L. The working inoculum used corresponds to a 1/100 dilution of a bacterial suspension equivalent to 0.5 in the Mc Farland scale.

[2] = test system: Pseudomonas aeruginosa; assay: MIC by broth microdilution; type: cell-based
Protocol: as §1, §2, §3

[3] = test system: Staphylococcus aureus; assay: MIC by broth microdilution; type: cell-based
Protocol: as §1, §2, §3

[4] = test system: A. baumanii
Protocol: as §2, §3

[5] = test system: E. gallinarum
Protocol: as §2, §3

[6] = test system: E. raffinosus
Protocol: as §2, §3

[7] = test system: S. haemolyticus
Protocol: as §2, §3

[8] = test system: E. coli; type: cell-based
Protocol: (§4) In vitro sensitivity assay of aerobically growing bacteria, using the disc diffusion method was performed according to the standards in the M2 document of the CLSI (Clinical and Laboratory Standards Institute: Performance Standards for Antimicrobial Disk Susceptibility Tests.) using the non-amidated peptides
(§5) In brief, intermediate solutions (10×) of the antimicrobial non-amidated peptides were prepared by serial dilutions 1:2, 1:4 and 1:8 by two-fold dilutions. Then, one part of the solution of the antimicrobial peptide 10× was added to nine parts of melted bacteriological agar. The antibiotic solution was added for each dilution, in the melted agar and cooled to 45-50° C. in a water bath. Then, the agar-antibiotic mixture was placed in a Petri dish until a 3-4 mm depth was reached. The inoculum is prepared with a turbidity of 0.5 in the McFarland scale (approximately 1-2 10^8 CFU/ml). The final inoculum required for the agar dilution test is 10^4 colony forming units (CFU) per “spot” having 5-8 mm in diameter. The inoculated plates must be incubated upside down at 35° C. for a period of 16-20 hs. MIC was recorded as the value of the lower dilution completely inhibiting bacterial development, without considering the development of a single colony or a slight film caused by the inoculum deposit. The final point in these cases will correspond to the concentration at which there is more than 80% reduction in growth as compared with the control.

[9] = test system: K. pneumoniae; type: cell-based
Protocol: as §4, §5

[10] = test system: P. aeruginosa; type: cell-based
Protocol: as §4, §5

[11] = test system: S. aureus; type: cell-based
Protocol: as §4, §5

[12] = test system: S. cohnii; type: cell-based
Protocol: as §4, §5

[13] = test system: S. warnerii; type: cell-based
Protocol: as §4, §5

[14] = test system: human erythrocytes; assay: Erythrocyte hemolysis assay (cytotoxicity); type: cell-based
Protocol: Subsequently, the capacity of the peptides of the invention for lysing human erythrocytes was evaluated, as a measure of their cytotoxicity (Table 2). The assays were carried out according to the Examples and are expressed as a percentage of total lysis obtained with either water or the surfactant Tween 20. In this assays, the lower hemolysis percentage, the lower expected cytotoxic activity.
Evaluation of cytotoxic activity was performed by means of an erythrocyte hemolysis assay (according to Pure Appl. Chem., Vol. 79, No. 4, pp. 717-728, 2007). In brief, from a volume of heparinized human whole blood, 3 times that volume of PBS is added and centrifuged 10 minutes at 1500 rpm, repeating the washing two more times. 10% blood solutions in PBS were prepared with that pellet. Subsequently, each group was added the corresponding peptide at the indicated concentration and incubated at 37° C. for 30 minutes. […]

GLLKKWLKKWKEFKRIVGY-NH2 [peptide 2, GLLKKWLKKWKEFKRIVGY]
MIC ([1]; E. coli ABC11, resistance gene ctx-m-2): 32 µg/mL | MIC ([1]; E. coli Cos15, resistance gene per + tem): 64 µg/mL | MIC ([1]; E. coli LCA1, resistance gene ctx-m-2 + tem-1): 64 µg/mL | MIC ([1]; E. coli M5306, resistance gene ctx-m-2 + tem-1 + per-2): 4 µg/mL | MIC ([1]; E. coli M7859, resistance gene cit): 32 µg/mL | MIC ([1]; E. coli M9209, resistance gene kpc): 64 µg/mL | MIC ([1]; E. coli NEU23, resistance gene oxa-GIII + tem): 32 µg/mL | MIC ([2]; P. aeruginosa M7525, resistance gene spm): 64 µg/mL | MIC ([2]; P. aeruginosa M7712, resistance gene spm): 64 µg/mL | MIC ([2]; P. aeruginosa M7723, resistance gene kpc): 64 µg/mL | MIC ([2]; P. aeruginosa M7728, resistance gene imp): 64 µg/mL | MIC ([2]; P. aeruginosa M7907, resistance gene per): 64 µg/mL | MIC ([3]; S. aureus 28, resistance gene ermA): 64 µg/mL | MIC ([3]; S. aureus 33, resistance gene msrA): 128 µg/mL | MIC ([3]; S. aureus 204, resistance gene ermA): 64 µg/mL | MIC ([3]; S. aureus 239, resistance gene ermC): 64 µg/mL | MIC ([3]; S. aureus ATCC29213, WT): 64 µg/mL | MIC ([3]; S. aureus M2832, resistance gene mecA): 128 µg/mL | MIC ([3]; S. aureus M4046, resistance gene mecA): 128 µg/mL | MIC ([3]; S. aureus M6784, resistance gene mecA): 32 µg/mL | MIC ([4]; A. baumanii FAV-1, resistance gene per + oxa-51 + oxa-58): 16 µg/mL | MIC ([4]; A. baumanii M5179, resistance gene oxa-51): 32 µg/mL | MIC ([4]; A. baumanii M5277, resistance gene per): 32 µg/mL | MIC ([4]; A. baumanii M5282, resistance gene oxa-51): 8 µg/mL | MIC ([4]; A. baumanii M5949, resistance gene oxa-23 + oxa-GVI): 32 µg/mL | MIC ([4]; A. baumanii M7489, resistance gene oxa-51 + tem): 8 µg/mL | MIC ([4]; A. baumanii M7978, resistance gene imp): 16 µg/mL | MIC ([4]; A. baumanii M9665, resistance gene oxa-51): 4 µg/mL | MIC ([4]; A. baumanii M13523, resistance gene oxa-51): 32 µg/mL | MIC ([5]; E. gallinarum M2685, resistance gene vanC1 + vanA): 16 µg/mL | MIC ([5]; E. gallinarum M2723, resistance gene vanC1 + vanA): 32 µg/mL | MIC [6]: 8 µg/mL | MIC [7]: 8 µg/mL | MIC in agar dilution [8]: 128 µg/mL | MIC in agar dilution [9]: 64 µg/mL | MIC in agar dilution [10]: >128 µg/mL | MIC in agar dilution [11]: >128 µg/mL | MIC in agar dilution [12]: 16 µg/mL | MIC in agar dilution [13]: 8 µg/mL | hemolysis values (in words) [14]: high hemolysis values
